Assay results from article PMC10544575, “Inhibitory mechanism of vortioxetine on CYP450 enzymes in human and rat liver microsomes” (Frontiers in Pharmacology, 2023).

Assays:
[1] = test system: CYP2C-2; assay: Reversible inhibition kinetics (Lineweaver-Burk), CYP2C-2 in RLMs; type: in vitro ADME, rat
Protocol: The components of the incubation system were as follows: 0.20 mg/mL HLMs or 0.20 mg/mL RLMs, 0.1 M Tris-HCl, vortioxetine, and the probe substrates of each enzyme. In the study of Km’s (Michaelis–Menten constant) experiment, midazolam (1, 2, 5, 10, 20, 50 and 100 μM in HLMs and RLMs) corresponded to CYP3A4/3A; bupropion (10, 20, 50, 100, 200, 500, 1,000 and 2000 μM in HLMs; 1, 2, 5, 10, 20, 50, 100 and 200 μM in RLMs) corresponded to CYP2B6/2B; amodiaquine (5, 10, 20, 50, 100 and 200 μM in HLMs; 10, 20, 50, 100, 200, 500 μM in RLMs) corresponded to CYP2C8/CYP2C-1; losartan (1, 2, 5, 10, 20, 50, 100, 200 μM in HLMs; 10, 20, 50, 100, 200, 500 and 1,000 μM in RLMs) corresponded to CYP2C9/CYP2C-2; mephenytoin (20, 50, 100, 200, 500 and 1,000 μM in HLMs; 5, 10, 20, 50, 100, 200, 500 and 1,000 μM in RLMs) corresponded to CYP2C19/CYP2C-3; and dextromethorphan (1, 2, 5, 10, 20, 50 and 100 μM in HLMs and RLMs) corresponded to CYP2D6/CYP2D. […]
All experiments results were detected by UPLC-MS/MS, which equipped with a Waters Acquity UPLC system (Milford, MA, United States) and a Waters Xevo TQ-S triple quadrupole tandem mass spectrometer with an electrospray ionization source (Milford, MA, United States). […]
(§1) IC50 values and enzyme kinetic parameters were calculated by Graphpad Prism 6.0 (GraphPad software Inc., CA, United States). […] Data for each experiment were expressed as mean ± SD (n = 3).

[2] = test system: CYP2C-1; assay: IC50-shift experiment, CYP2C-1 in RLMs; type: in vitro ADME, rat
[3] = target: CYP2C19 (Homo sapiens, UniProt P33261); assay: IC50-shift experiment, CYP2C19 in HLMs; type: in vitro ADME; parameters: 0.20 mg/mL HLMs or 0.20 mg/mL RLMs; from tissue; host or cells: human liver microsomes; conditions: for IC50: mephenytoin 90 μM
Sequence of CYP2C19 (P33261 whole entry): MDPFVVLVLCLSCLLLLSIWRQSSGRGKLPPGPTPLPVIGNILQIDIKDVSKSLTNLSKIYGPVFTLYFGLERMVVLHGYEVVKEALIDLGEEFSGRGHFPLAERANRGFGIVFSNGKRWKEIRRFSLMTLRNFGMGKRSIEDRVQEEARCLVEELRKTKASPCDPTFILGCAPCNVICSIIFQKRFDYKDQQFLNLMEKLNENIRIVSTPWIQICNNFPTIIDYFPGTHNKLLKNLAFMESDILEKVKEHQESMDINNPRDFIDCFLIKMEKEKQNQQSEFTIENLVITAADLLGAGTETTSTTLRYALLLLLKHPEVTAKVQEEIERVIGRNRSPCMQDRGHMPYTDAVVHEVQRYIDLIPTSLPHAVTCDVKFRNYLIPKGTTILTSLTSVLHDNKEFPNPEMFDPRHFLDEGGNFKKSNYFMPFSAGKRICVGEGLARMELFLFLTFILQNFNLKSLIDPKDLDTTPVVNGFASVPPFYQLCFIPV
Protocol: The components of the incubation system were as follows: 0.20 mg/mL HLMs or 0.20 mg/mL RLMs, 0.1 M Tris-HCl, vortioxetine, and the probe substrates of each enzyme. In the study of Km’s (Michaelis–Menten constant) experiment, midazolam (1, 2, 5, 10, 20, 50 and 100 μM in HLMs and RLMs) corresponded to CYP3A4/3A; bupropion (10, 20, 50, 100, 200, 500, 1,000 and 2000 μM in HLMs; 1, 2, 5, 10, 20, 50, 100 and 200 μM in RLMs) corresponded to CYP2B6/2B; amodiaquine (5, 10, 20, 50, 100 and 200 μM in HLMs; 10, 20, 50, 100, 200, 500 μM in RLMs) corresponded to CYP2C8/CYP2C-1; losartan (1, 2, 5, 10, 20, 50, 100, 200 μM in HLMs; 10, 20, 50, 100, 200, 500 and 1,000 μM in RLMs) corresponded to CYP2C9/CYP2C-2; mephenytoin (20, 50, 100, 200, 500 and 1,000 μM in HLMs; 5, 10, 20, 50, 100, 200, 500 and 1,000 μM in RLMs) corresponded to CYP2C19/CYP2C-3; and dextromethorphan (1, 2, 5, 10, 20, 50 and 100 μM in HLMs and RLMs) corresponded to CYP2D6/CYP2D. After 5.0 min of preincubation in the shaking water bath, the reaction was started with the addition of 1.0 mM NADPH. The incubated temperature at 37°C for 30 min. After the incubation, the enzyme reaction was stopped by cooling at −80°C, and 200 μL of acetonitrile and 20 μL of internal standard diazepam (200 ng/mL) were added for protein precipitation. The solution was fully vortexed and centrifuged at 13,000 × rpm for 10 min, and the supernatant was collected for data analysis by UPLC-MS/MS.
IC50-shift was used to investigate whether the drug produced time-dependent inhibition (TDI) of the enzyme. […] The above mixture was then incubated for another 30 min. During the experiment, the individual substrates midazolam (4 μM), bupropion (40 μM), amodiaquine (3 μM), losartan (8 μM), mephenytoin (90 μM), and dextromethorphan (10 μM) were determined with vortioxetine IC50-shift in HLMs. […] Other experimental conditions were the same as above.
All experiments results were detected by UPLC-MS/MS, which equipped with a Waters Acquity UPLC system (Milford, MA, United States) and a Waters Xevo TQ-S triple quadrupole tandem mass spectrometer with an electrospray ionization source (Milford, MA, United States). The chromatographic separation was performed on a Waters ACQUITY UPLC BEH C18 column (2.1 × 50 mm, 1.7 μm, Waters Corp.) at 40°C. The mobile phase was consisted of acetonitrile (A) and 0.1% formic acid in water (B). The gradient elution at a flow rate of 0.4 mL/min was conducted as follows: 0–0.5 min, 10% A; 0.5–1.0 min, 10%–90% A; 1.0–2.0 min, 90% A; 2.0–2.1 min, 90%–10% A, and 2.1–3.0 min, 10% A. The relevant analysis parameters were shown in Table 1.
as §1

Inhibition type ([1]; losartan, Lineweaver-Burk plot): competitive inhibition
Ki at 30 min ([1]; rat, rat liver microsomes, probe losartan): 0.12 µM
IC50 ([2]; 30 min preincubation without NADPH, amodiaquine 20 μM): 19.8 µM
IC50 at 30 min ([2]; rat, rat liver microsomes, probe amodiaquine, 30 min preincubation without NADPH, amodiaquine 20 μM): 18.3 µM
IC50 ([3]; CYP2C19, 30 min preincubation with 1.0 mM NADPH): 2.83 µM
IC50 ([3]; CYP2C19, 30 min preincubation without NADPH): 5.88 µM
activity of CYP2C19 with the NADPH ([3]; preincubation with NADPH vs without): significantly reduced
SMILES: Cc1ccc(Sc2ccccc2N2CCNCC2)c(C)c1 [vortioxetine]
IC50 shift at 30 min ([2]; rat, rat liver microsomes, probe amodiaquine, ratio IC50 (−) NADPH to IC50 (+) NADPH, read-out: IC50 fold shift): 1.98
IC50 shift at 30 min ([3]; human, human liver microsomes, probe mephenytoin (90 μM), CYP2C19, ratio IC50 (−) NADPH to IC50 (+) NADPH, read-out: IC50 fold shift): 2.08
